Experimental data taken from patent publication US8680275B2, “Fused heterocyclic compounds as orexin receptor modulators” (Janssen Pharmaceutica NV, priority 2009, dated 2014).

Columns and labels:
human orexin 1 receptor = human orexin 1 receptor (Homo sapiens (Human), UniProt O43613); assay: Human orexin 1 receptor radioligand binding ([3H]-SB674042 competition); conditions: CHO cells stably expressing human orexin 1 receptor; [3H]-SB674042 4 nM final; read-out: OR-1 Ki
Outline: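 CHO cells stably expressing human OX1R incubated 60 min at room temperature with [3H]-SB674042 and compounds (7 concentrations, 0.1 nM–10 μM; DMSO ≤0.1%) in PBS. Nonspecific binding defined with 10 μM of a reference urea antagonist; bound radioactivity measured by filtration and scintillation counting.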

human orexin-2 receptor = human orexin-2 receptor (Homo sapiens (Human), UniProt O43614); assay: Human orexin 2 receptor radioligand binding ([3H]-EMPA competition); conditions: HEK293 cells stably expressing human orexin-2 receptor; [3H]-EMPA 5 nM final; read-out: OR-2 Ki
Outline: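 Competition binding on HEK293 cells stably expressing human orexin-2 receptor, using 5 nM final [3H]-EMPA in PBS, compounds 0.1 nM to 10 μM (DMSO ≤0.1%). 60 min at room temperature, then filtration and scintillation counting; nonspecific binding defined with 10 μM of a reference antagonist.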

human orexin-2 receptor, sequence (O43614 whole entry): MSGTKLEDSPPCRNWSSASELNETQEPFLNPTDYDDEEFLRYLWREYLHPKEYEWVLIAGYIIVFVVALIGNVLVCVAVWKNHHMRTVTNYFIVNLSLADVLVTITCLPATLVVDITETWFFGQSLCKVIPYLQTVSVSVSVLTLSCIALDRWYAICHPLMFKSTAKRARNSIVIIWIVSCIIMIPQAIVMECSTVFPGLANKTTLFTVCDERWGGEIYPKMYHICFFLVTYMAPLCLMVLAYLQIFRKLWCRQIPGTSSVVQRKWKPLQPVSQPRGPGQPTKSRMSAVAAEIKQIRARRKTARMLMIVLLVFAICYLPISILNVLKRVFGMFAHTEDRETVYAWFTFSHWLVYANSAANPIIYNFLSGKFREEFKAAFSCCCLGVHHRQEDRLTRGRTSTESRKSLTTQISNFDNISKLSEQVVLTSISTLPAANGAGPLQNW
human orexin 1 receptor, sequence (O43613 whole entry): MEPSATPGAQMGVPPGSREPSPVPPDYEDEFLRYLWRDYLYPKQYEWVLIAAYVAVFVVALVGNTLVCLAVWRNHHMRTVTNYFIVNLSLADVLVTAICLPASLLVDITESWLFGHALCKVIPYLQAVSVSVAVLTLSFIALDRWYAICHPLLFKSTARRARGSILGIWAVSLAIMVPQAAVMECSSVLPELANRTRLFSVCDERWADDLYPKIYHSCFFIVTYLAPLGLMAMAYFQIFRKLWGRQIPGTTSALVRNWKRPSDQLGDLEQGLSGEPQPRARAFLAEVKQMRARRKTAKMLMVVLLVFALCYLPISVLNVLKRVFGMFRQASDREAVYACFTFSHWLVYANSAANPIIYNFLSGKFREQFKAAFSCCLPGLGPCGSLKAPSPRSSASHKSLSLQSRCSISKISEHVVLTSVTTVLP

**Q.** Which Ki (human orexin 1 receptor) does the source give for `COc1ccc(-n2nccn2)c(C(=O)N2CC[C@H]3CN(c4cc(C)ccn4)[C@H]3C2)c1` [Example 139, (1R,6S)-3-{[5-Methoxy-2-(2H-1,2,3-triazol-2-yl)phenyl]carbonyl}-8-(4-methylpyridin-2-yl)-3,8-diazabicyclo[4.2.0]octane] here?
**A.** 6500 nM

**Q.** What about the Ki (human orexin-2 receptor) of the same compound?
**A.** 208 nM

**Q.** Which Ki (human orexin 1 receptor) does the source give for `COc1ccc(-n2nccn2)c(C(=O)N2CC[C@H]3CN(c4cc(C(F)(F)F)ccn4)[C@H]3C2)c1` [Example 140, (1R,6S)-3-{[5-Methoxy-2-(2H-1,2,3-triazol-2-yl)phenyl]carbonyl}-8-[4-(trifluoromethyl)pyridin-2-yl]-3,8-diazabicyclo[4.2.0]octane] here?
**A.** 1070 nM

**Q.** What about the Ki (human orexin-2 receptor) of the same compound?
**A.** 70 nM

**Q.** How did the Ki (human orexin 1 receptor) turn out when `Cc1cccc(C(=O)N2CC[C@H]3CN(c4cc(N(C)C)ccn4)[C@H]3C2)c1-n1nccn1` [Example 141, N,N-Dimethyl-2-[(1R,6S)-3-{[3-methyl-2-(2H-1,2,3-triazol-2-yl)phenyl]carbonyl}-3,8-diazabicyclo[4.2.0]oct-8-yl]pyridin-4-amine] was run?
**A.** 9000 nM

**Q.** And the Ki (human orexin-2 receptor)?
**A.** 734 nM

**Q.** What does the source list for `COc1ccc(C(=O)N2CC[C@H]3CN(c4cc(N(C)C)ccn4)[C@H]3C2)c(-n2nccn2)c1` [Example 142, 2-[(1R,6S)-3-{[4-Methoxy-2-(2H-1,2,3-triazol-2-yl)phenyl]carbonyl}-3,8-diazabicyclo[4.2.0]oct-8-yl]-N,N-dimethylpyridin-4-amine]?
**A.** Ki (human orexin 1 receptor): 10000 nM; Ki (human orexin-2 receptor): 9000 nM

**Q.** Which results are given for `CN(C)c1ccnc(N2C[C@@H]3CCN(C(=O)c4cccc(F)c4-c4ncccn4)C[C@@H]32)c1` [Example 143, 2-{(1R,6S)-3-[(3-Fluoro-2-pyrimidin-2-ylphenyl)carbonyl]-3,8-diazabicyclo[4.2.0]oct-8-yl}-N,N-dimethylpyridin-4-amine]?
**A.** Ki (human orexin 1 receptor): 10000 nM; Ki (human orexin-2 receptor): 9000 nM

**Q.** With `CN(C)c1ccnc(N2C[C@@H]3CCN(C(=O)c4cccc(F)c4-n4nccn4)C[C@@H]32)c1` [Example 144, 2-[(1R,6S)-3-{[3-Fluoro-2-(2H-1,2,3-triazol-2-yl)phenyl]carbonyl}-3,8-diazabicyclo[4.2.0]oct-8-yl]-N,N-dimethylpyridin-4-amine] as the compound, how does the Ki (human orexin 1 receptor) read?
**A.** 10000 nM

**Q.** What about the Ki (human orexin-2 receptor) of the same compound?
**A.** 2810 nM

**Q.** Which Ki (human orexin 1 receptor) does the source give for `O=C(c1cccc(F)c1-n1nccn1)N1CC[C@H]2CN(c3cc(C(F)(F)F)ccn3)[C@H]2C1` [Example 145, (1R,6S)-3-{[3-Fluoro-2-(2H-1,2,3-triazol-2-yl)phenyl]carbonyl}-8-[4-(trifluoromethyl)pyridin-2-yl]-3,8-diazabicyclo[4.2.0]octane] here?
**A.** 3300 nM

**Q.** What about the Ki (human orexin-2 receptor) of the same compound?
**A.** 110 nM

**Q.** Which Ki (human orexin 1 receptor) does the source give for `COc1ccc(C(=O)N2CC[C@H]3CN(c4cc(C(F)(F)F)ccn4)[C@H]3C2)c(-n2nccn2)c1` [Example 146, (1R,6S)-3-{[4-Methoxy-2-(2H-1,2,3-triazol-2-yl)phenyl]carbonyl}-8-[4-(trifluoromethyl)pyridin-2-yl]-3,8-diazabicyclo[4.2.0]octane] here?
**A.** 9000 nM

**Q.** What about the Ki (human orexin-2 receptor) of the same compound?
**A.** 299 nM

**Q.** With `Cc1cccc(C(=O)N2CC[C@H]3CN(c4cc(C(F)(F)F)ccn4)[C@H]3C2)c1-n1nccn1` [Example 147, (1R,6S)-3-{[3-Methyl-2-(2H-1,2,3-triazol-2-yl)phenyl]carbonyl}-8-[4-(trifluoromethyl)pyridin-2-yl]-3,8-diazabicyclo[4.2.0]octane] as the compound, how does the Ki (human orexin 1 receptor) read?
**A.** 793 nM

**Q.** And the Ki (human orexin-2 receptor)?
**A.** 91 nM

**Q.** Which Ki (human orexin 1 receptor) does the source give for `Cc1cc(C)nc(N2C[C@@H]3CCN(C(=O)c4cccc(F)c4-n4nccn4)C[C@@H]32)c1` [Example 148, (1R,6S)-8-(4,6-Dimethylpyridin-2-yl)-3-{[3-fluoro-2-(2H-1,2,3-triazol-2-yl)phenyl]carbonyl}-3,8-diazabicyclo[4.2.0]octane] here?
**A.** 845 nM

**Q.** And the Ki (human orexin-2 receptor)?
**A.** 36 nM

**Q.** Which results are given for `COc1ccc(C(=O)N2CC[C@H]3CN(c4cc(C)cc(C)n4)[C@H]3C2)c(-n2nccn2)c1` [Example 149, (1R,6S)-8-(4,6-Dimethylpyridin-2-yl)-3-{[4-methoxy-2-(2H-1,2,3-triazol-2-yl)phenyl]carbonyl}-3,8-diazabicyclo[4.2.0]octane]?
**A.** Ki (human orexin 1 receptor): 10000 nM; Ki (human orexin-2 receptor): 190 nM

**Q.** Which Ki (human orexin 1 receptor) does the source give for `COc1ccc(-n2nccn2)c(C(=O)N2CC[C@H]3CN(c4cc(N(C)C)ccn4)[C@H]3C2)c1` [Example 150, 2-[(1R,6S)-3-{[5-Methoxy-2-(2H-1,2,3-triazol-2-yl)phenyl]carbonyl}-3,8-diazabicyclo[4.2.0]oct-8-yl]-N,N-dimethylpyridin-4-amine] here?
**A.** 10000 nM

**Q.** And the Ki (human orexin-2 receptor)?
**A.** 532 nM

**Q.** With `COc1ccc(-n2nccn2)c(C(=O)N2CC[C@H]3CN(c4cc(C)cc(C)n4)[C@H]3C2)c1` [Example 151, (1R,6S)-8-(4,6-Dimethylpyridin-2-yl)-3-{[5-methoxy-2-(2H-1,2,3-triazol-2-yl)phenyl]carbonyl}-3,8-diazabicyclo[4.2.0]octane] as the compound, how does the Ki (human orexin 1 receptor) read?
**A.** 341 nM

**Q.** And the Ki (human orexin-2 receptor)?
**A.** 17 nM

**Q.** With `O=C(c1cccc(F)c1-c1ncccn1)N1CC[C@H]2CN(c3cc(C(F)(F)F)ccn3)[C@H]2C1` [Example 152, (1R,6S)-3-[(3-Fluoro-2-pyrimidin-2-ylphenyl)carbonyl]-8-[4-(trifluoromethyl)pyridin-2-yl]-3,8-diazabicyclo[4.2.0]octane] as the compound, how does the Ki (human orexin 1 receptor) read?
**A.** 1850 nM

**Q.** And the Ki (human orexin-2 receptor)?
**A.** 223 nM

**Q.** How did the Ki (human orexin 1 receptor) turn out when `Cc1cc(C)nc(N2C[C@@H]3CCN(C(=O)c4cccc(F)c4-c4ncccn4)C[C@@H]32)c1` [Example 153, (1R,6S)-8-(4,6-Dimethylpyridin-2-yl)-3-[(3-fluoro-2-pyrimidin-2-ylphenyl)carbonyl]-3,8-diazabicyclo[4.2.0]octane] was run?
**A.** 687 nM

**Q.** What about the Ki (human orexin-2 receptor) of the same compound?
**A.** 82 nM

**Q.** Which Ki (human orexin 1 receptor) does the source give for `COc1ccc(Br)c(C(=O)N2CC[C@H]3CN(c4nc(C)cc(C)n4)[C@H]3C2)c1F` [Example 154, (1R,6S)-3-[(6-Bromo-2-fluoro-3-methoxyphenyl)carbonyl]-8-(4,6-dimethylpyrimidin-2-yl)-3,8-diazabicyclo[4.2.0]octane] here?
**A.** 1200 nM

**Q.** And the Ki (human orexin-2 receptor)?
**A.** 140 nM

**Q.** For `Cc1cc(C)nc(N2C[C@@H]3CCN(C(=O)c4cccc(F)c4-n4cccn4)C[C@@H]32)n1` [Example 155, (1R,6S)-8-(4,6-Dimethylpyrimidin-2-yl)-3-{[3-fluoro-2-(1H-pyrazol-1-yl)phenyl]carbonyl}-3,8-diazabicyclo[4.2.0]octane], which Ki (human orexin 1 receptor) is on record?
**A.** 1530 nM

**Q.** And the Ki (human orexin-2 receptor)?
**A.** 57 nM

**Q.** For `COc1ccc(-c2ncccn2)c(C(=O)N2CC[C@H]3CN(c4nc(C)cc(C)n4)[C@H]3C2)c1F` [Example 156, (1R,6S)-8-(4,6-Dimethylpyrimidin-2-yl)-3-[(2-fluoro-3-methoxy-6-pyrimidin-2-ylphenyl)carbonyl]-3,8-diazabicyclo[4.2.0]octane], which Ki (human orexin 1 receptor) is on record?
**A.** 860 nM

**Q.** What about the Ki (human orexin-2 receptor) of the same compound?
**A.** 185 nM

**Q.** Which Ki (human orexin 1 receptor) does the source give for `Cc1cc(C)nc(N2C[C@@H]3CCN(C(=O)c4cc(C)c(C)nc4-n4nccn4)C[C@@H]32)n1` [Example 157, (1R,6S)-8-(4,6-Dimethylpyrimidin-2-yl)-3-{[5,6-dimethyl-2-(2H-1,2,3-triazol-2-yl)pyridin-3-yl]carbonyl}-3,8-diazabicyclo[4.2.0]octane] here?
**A.** 3900 nM

**Q.** What about the Ki (human orexin-2 receptor) of the same compound?
**A.** 230 nM

**Q.** What does the source list for `Cc1cc(C)nc(N2C[C@@H]3CCN(C(=O)c4cc(C)c(C)nc4-n4ccnn4)C[C@@H]32)n1` [Example 158, (1R,6S)-8-(4,6-Dimethylpyrimidin-2-yl)-3-{[5,6-dimethyl-2-(1H-1,2,3-triazol-1-yl)pyridin-3-yl]carbonyl}-3,8-diazabicyclo[4.2.0]octane]?
**A.** Ki (human orexin 1 receptor): 3200 nM; Ki (human orexin-2 receptor): 170 nM

**Q.** `Cc1cc(C)nc(N2C[C@@H]3CCN(C(=O)c4ccc(C(F)(F)F)nc4-n4ccnn4)C[C@@H]32)n1` [Example 159, (1R,6S)-8-(4,6-Dimethylpyrimidin-2-yl)-3-{[2-(1H-1,2,3-triazol-1-yl)-6-(trifluoromethyl)pyridin-3-yl]carbonyl}-3,8-diazabicyclo[4.2.0]octane] was tested. Which Ki (human orexin 1 receptor) did it give?
**A.** 10000 nM

**Q.** And the Ki (human orexin-2 receptor)?
**A.** 540 nM

**Q.** `Cc1cnc(-n2nccn2)c(C(=O)N2CC[C@H]3CN(c4nc(C)cc(C)n4)[C@H]3C2)c1` [Example 160, (1R,6S)-8-(4,6-Dimethylpyrimidin-2-yl)-3-{[5-methyl-2-(2H-1,2,3-triazol-2-yl)pyridin-3-yl]carbonyl}-3,8-diazabicyclo[4.2.0]octane] was tested. Which Ki (human orexin 1 receptor) did it give?
**A.** 6000 nM

**Q.** What about the Ki (human orexin-2 receptor) of the same compound?
**A.** 370 nM

**Q.** What does the source list for `Cc1cnc(-n2ccnn2)c(C(=O)N2CC[C@H]3CN(c4nc(C)cc(C)n4)[C@H]3C2)c1` [Example 161, (1R,6S)-8-(4,6-Dimethylpyrimidin-2-yl)-3-{[5-methyl-2-(1H-1,2,3-triazol-1-yl)pyridin-3-yl]carbonyl}-3,8-diazabicyclo[4.2.0]octane]?
**A.** Ki (human orexin 1 receptor): 4500 nM; Ki (human orexin-2 receptor): 280 nM

**Q.** Which results are given for `COc1ccc(C(=O)N2CC[C@H]3CN(c4nc(C)cc(C)n4)[C@H]3C2)c(-n2nccn2)n1` [Example 162, (1R,6S)-8-(4,6-Dimethylpyrimidin-2-yl)-3-{[6-methoxy-2-(2H-1,2,3-triazol-2-yl)pyridin-3-yl]carbonyl}-3,8-diazabicyclo[4.2.0]octane]?
**A.** Ki (human orexin 1 receptor): 10000 nM; Ki (human orexin-2 receptor): 380 nM

**Q.** `COc1ccc(C(=O)N2CC[C@H]3CN(c4nc(C)cc(C)n4)[C@H]3C2)c(-n2ccnn2)n1` [Example 163, (1R,6S)-8-(4,6-Dimethylpyrimidin-2-yl)-3-{[6-methoxy-2-(1H-1,2,3-triazol-1-yl)pyridin-3-yl]carbonyl}-3,8-diazabicyclo[4.2.0]octane] was tested. Which Ki (human orexin 1 receptor) did it give?
**A.** 10000 nM

**Q.** And the Ki (human orexin-2 receptor)?
**A.** 700 nM

**Q.** `Cc1cc(C)nc(N2C[C@@H]3CCN(C(=O)c4cc(F)ccc4Br)C[C@@H]32)n1` [Example 164, (1R,6S)-3-[(2-Bromo-5-fluorophenyl)carbonyl]-8-(4,6-dimethylpyrimidin-2-yl)-3,8-diazabicyclo[4.2.0]octane] was tested. Which Ki (human orexin 1 receptor) did it give?
**A.** 3900 nM

**Q.** And the Ki (human orexin-2 receptor)?
**A.** 190 nM
